Reference: publication PMC9181126, “Design, Synthesis, Molecular Docking Analysis and Biological Evaluations of 4-[(Quinolin-4-yl)amino]benzamide Derivatives as Novel Anti-Influenza Virus Agents” (International Journal of Molecular Sciences, 2022)

Tests used:
A/PR/8 (H1N1) = assay: Plaque inhibition assay in MDCK cells; type: cell-based; details: Influenza A virus
A/HK/68 (H3N2) = assay: Plaque inhibition assay in MDCK cells; type: cell-based; details: Influenza A virus
in vitro [1] = type: cell-based; details: human
Procedure, shortened: (§1)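 Cells were seeded and compound medium added after 48 h, then incubated 72 h at 37 °C, 5% CO2. Viability was measured by MTT (4 h), then solubilization and absorbance at 620 nm after a further 3 h. DMSO-only wells were taken as 100% viable.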

HEK293T cells = assay: in vitro; type: cell-based; details: human, 72 h
Procedure, shortened: as §1

[2] = target: ribonucleoprotein (RNP) of influenza virus (Influenza A virus, UniProt P15659); assay: cell-based; details: HEK-293T, read-out: RNP Reconstitution Assay Inhibition Rate; for inhibition at 100 µM: concentration 100 µM; for inhibition at 12.5 µM: concentration 12.5 µM
[3] = tested on: influenza virus A/WSN/33 (H1N1); assay: Plaque inhibition assay in MDCK cells; type: cell-based; details: for IC50: MDCK cells; for inhibition at 100 µM: concentration 100 µM
in vitro [4] = type: cell-based, canine; details: dog
Procedure, shortened: as §1

MDCK cells = assay: in vitro; type: cell-based, canine; details: dog, 72 h
Procedure, shortened: as §1

[5] = tested on: influenza virus A/WSN/33 (H1N1); assay: microbe, parasite or virus in culture; type: cell-based; details: MDCK, 72 h; for inhibition at 12.5 µM / inhibition at 25 µM / inhibition at 50 µM / inhibition at 100 µM: H1N1|WSN, read-out: Antiviral activity in CPE assay; for EC50: read-out: Cytopathic Effect Assay (A/WSN/33, H1N1) EC50
influenza B virus = assay: Plaque inhibition assay in MDCK cells; type: cell-based
A/WSN/33, H1N1 = tested on: A/WSN/33, H1N1; parameters: method as in PMID 25333287; details: cited from earlier work
[6] = MDCK, read-out: Plaque Inhibition Assay (A/WSN/33, H1N1) Inhibition Rate

| Structure (SMILES) | CC50 at 72 h (in vitro [1]) [µM] | HEK293T cells survival rate (HEK293T cells; 3.125 µmol·L−1) [%] | HEK293T cells survival rate (HEK293T cells; 6.25 µmol·L−1) [%] | HEK293T cells survival rate (HEK293T cells; 12.5 µmol·L−1) [%] | HEK293T cells survival rate (HEK293T cells; 25 µmol·L−1) [%] | HEK293T cells survival rate (HEK293T cells; 50 µmol·L−1) [%] | HEK293T cells survival rate (HEK293T cells; 100 µmol·L−1) [%] | inhibition at 100 µM [2] [%] | inhibition at 100 µM [3, 6] [%] | CC50 at 72 h (in vitro [4]) [µM] | MDCK cells survival rate (MDCK cells; 12.5 µmol·L−1) [%] | MDCK cells survival rate (MDCK cells; 25 µmol·L−1) [%] | MDCK cells survival rate (MDCK cells; 50 µmol·L−1) [%] | MDCK cells survival rate (MDCK cells; 100 µmol·L−1) [%] | inhibition at 12.5 µM [5] [%] | inhibition at 25 µM [5] [%] | inhibition at 50 µM [5] [%] | inhibition at 100 µM [5] [%] | EC50 [5] [µM] | melting point [°C] | further results |
| --- | --- | --- | --- | --- | --- | --- | --- | --- | --- | --- | --- | --- | --- | --- | --- | --- | --- | --- | --- | --- | --- |
| COc1ccccc1OCCNC(=O)c1ccc(Nc2ccnc3cc(C(F)(F)F)ccc23)cc1 [Compound G07, N-[2-(2-Methoxyphenoxy)ethyl]-4-{[7-(trifluoromethyl)quinolin-4-yl]amino}benzamide] | > 100 | 106.60±2.14 | 97.91±1.23 | 91.58±3.34 | 87.01±2.19 | 90.17±2.90 | 81.39±7.21 | 80.7 | 95.9 | > 100 | 140.55±9.82 | 115.87±11.06 | 256.24±17.89 | 115.75±5.12 | 61.4 ± 6.86 | 78.2 ± 8.28 | 107 ± 2.43 | 112 ± 4.3 | 11.4 ± 1.89 |  | IC50 (A/PR/8 (H1N1)): 11.4 ± 2.38 µM; IC50 (A/HK/68 (H3N2)): 7.51 ± 1.76 µM; IC50 [3]: 0.23 ± 0.15 µM; IC50 (influenza B virus): 11 ± 1.16 µM |
| O=C(c1ccc(Nc2ccnc3cc(C(F)(F)F)ccc23)cc1)N1CCN(c2ccc(Cl)cc2)CC1 [Compound G17, [4-(4-Chlorophenyl)piperazin-1-yl]{4-{[7-(trifluoromethyl)quinolin-4-yl]amino}phenyl}methanone] | > 100 | 86.81±4.81 | 89.66±6.31 | 78.02±11.06 | 62.61±12.04 | 52.36±1.02 | 59.17±1.33 |  | 73.5 | > 100 | 71.49±1.03 | 65.78±1.15 | 63.22±11.25 | 51.32±5.29 | 33.5 ± 1.23 | 27.3 ± 3.16 | 21.1 ± 1.62 | 28.5 ± 7.81 | > 100 | 242 to 242.9 | inhibition at 12.5 µM [2]: 40.2% |
| COc1ccccc1OCCNC(=O)c1ccc(Nc2ccnc3ccccc23)cc1 [Compound G19, N-{2-(2-Methoxyphenoxy)ethyl}-4-(quinolin-4-ylamino)benzamide] | > 100 | 103.14±6.28 | 103.54±9.29 | 103.11±7.45 | 97.97±3.74 | 97.40±3.36 | 112.18±7.45 | 13.9 | 82.3 | > 100 | 90.89±5.31 | 93.23±8.08 | 102.17±1.95 | 111.55±9.83 | 131 ± 11.1 | 132 ± 4.75 | 138 ± 9.95 | 122 ± 5.08 | < 10 | 319.5 to 320.2 |  |
| COc1ccccc1OCCNC(=O)c1ccc(Nc2ccnc3c(C)cccc23)cc1 [Compound G20, N-[2-(2-Methoxyphenoxy)ethyl]-4-[(8-methylquinolin-4-yl)amino]benzamide] | > 100 | 96.66±8.01 | 91.48±3.65 | 94.07±9.07 | 87.46±21.36 | 80.21±1.35 | 60.29±0.35 |  |  | < 10 | 45.97±9.1 | 8.61±0.42 | 8.88±0.51 | 8.66±0.17 | 72 ± 6.36 | 28.6 ± 1.61 | 30.9 ± 0.88 | 31.1 ± 0.49 | > 100 | 150.2 to 151.7 | inhibition at 12.5 µM [2]: 6.69%; inhibition at 6 µM ([3]; MDCK, concentration 6 µM, read-out: Plaque Inhibition Assay (A/WSN/33, H1N1) Inhibition Rate): 74.3% |
| COc1ccccc1OCCNC(=O)c1ccc(Nc2ccnc3cc(OC(F)(F)F)ccc23)cc1 [Compound G22, N-[2-(2-Methoxyphenoxy)ethyl]-4-{[7-(trifluoromethoxy)quinolin-4-yl]amino}benzamide] | > 100 | 117.25±6.52 | 103.91±6.77 | 91.65±2.90 | 89.97±4.08 | 88.83±5.80 | 86.07±5.65 | 43.9 | 20 | > 100 | 95.78±2.47 | 99.56±3.73 | 104.22±9.18 | 118.12±6.49 | 112 ± 6.15 | 108 ± 8.75 | 106 ± 5.94 | 97.4 ± 10.2 | < 10 | 229.5 to 230.7 |  |
| COc1ccccc1OCCNC(=O)c1ccc(Nc2ccnc3cc([N+](=O)[O-])ccc23)cc1 [Compound G23, N-[2-(2-Methoxyphenoxy)ethyl]-4-[(7-nitroquinolin-4-yl)amino]benzamide] | > 100 | 93.57±3.31 | 96.34±4.31 | 95.29±3.05 | 89.02±3.47 | 96.62±7.74 | 88.11±4.02 | 56.6 | 77.9 | > 100 | 101.22±6.39 | 106.22±9.35 | 100.33±3.53 | 91.28±3.45 | 146 ± 3.38 | 143 ± 6.11 | 119.8 ± 0.68 | 119 ± 7.71 | < 10 | 217 to 218.5 |  |
| COc1ccccc1OCCNC(=O)c1ccc(Nc2ccnc3ccc(C(F)(F)F)cc23)cc1 [Compound G26, N-[2-(2-Methoxyphenoxy)ethyl]-4-{[6-(trifluoromethyl)quinolin-4-yl]amino}benzamide] | > 100 | 104.54±2.55 | 83.92±2.40 | 78.70±2.98 | 74.64±5.24 | 72.10±1.56 | 70.01±9.07 | 22.6 | < 10 | > 100 | 103.03±1.26 | 105.52±6.56 | 122.08±7.85 | 133.91±11.97 | 15.7 ± 1.06 | 16.8 ± 2.11 | 36.8 ± 1.79 | 49.7 ± 6.09 | > 100 | 225.3 to 227.3 |  |
| NC12CC3CC(CC(C3)C1)C2 [amantadine, reference compound] |  |  |  |  |  |  |  |  |  |  |  |  |  |  |  |  |  |  |  |  | IC50 (A/PR/8 (H1N1)): 64.2 ± 7.21 µM; IC50 (A/HK/68 (H3N2)): 2.22 ± 0.57 µM; IC50 [3]: > 100 µM; IC50 (influenza B virus): > 100 µM |
| CCN(CC)Cc1cc(Nc2ccnc3cc(Cl)ccc23)ccc1O [amodiaquine] |  |  |  |  |  |  |  |  |  |  |  |  |  |  |  |  |  |  |  |  | EC50 (A/WSN/33, H1N1): 6.3 µM |
